The text below walks through data of PubChem BioAssay (NCI).

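How tested: cells in 96-well plates exposed to compound for 48 hours at five concentrations. GI50 is the concentration that inhibits growth by half. Definition used: TGI = concentration required for complete inhibition of growth.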 Some results are limits rather than exact numbers.

Some test systems named below: 786-0 renal; CAKI-1 renal; EKVX NSCLC; HCC-2998 colon; K-562 leukemia; NCI-H460 lung; OVCAR-4 ovarian; SF-295 CNS; SK-MEL-2 melanoma; SK-MEL-5 melanoma.
Assay in all cases: NCI anticancer screen, dose series, 48 h

As for `COC(=O)C1(C(=O)OC)CC2c3c(c4ccccc4n3C)CC(C1=O)N2Cc1ccccc1` (centres undefined), the TGI with 786-0 renal, with CAKI-1 renal, with EKVX NSCLC, with HCC-2998 colon, with K-562 leukemia and with NCI-H460 lung was more than 100 µM each time. Moreover, the TGI with OVCAR-4 ovarian, in the experiment with SF-295 CNS, with SK-MEL-2 melanoma and with SK-MEL-5 melanoma was more than 100 µM each time.

In the case of `C/C=C/C=N/N(C(=O)c1cc([N+](=O)[O-])cc([N+](=O)[O-])c1)C1=NC(c2ccccc2)C(c2ccccc2)=NN1` (centres undefined), the TGI in the experiment on 786-0 renal, with CAKI-1 renal, with EKVX NSCLC, with HCC-2998 colon, with K-562 leukemia and in the experiment with NCI-H460 lung was more than 100 µM in each case. Also, the TGI in the experiment on OVCAR-4 ovarian was more than 100 µM; in the experiment with SF-295 CNS it was more than 100 µM; in the experiment on SK-MEL-2 melanoma, more than 100 µM; with SK-MEL-5 melanoma, 81.8 µM.

Consider `Cc1ccccc1NC(=O)C(=O)C(c1cnc2ccc([N+](=O)[O-])cc2n1)[N+](=O)[O-]` (centres undefined), for which the TGI in the experiment on 786-0 renal, with CAKI-1 renal, in the experiment on EKVX NSCLC, in the experiment with HCC-2998 colon, with K-562 leukemia and with NCI-H460 lung was more than 100 µM in each case. Also, the TGI in the experiment with OVCAR-4 ovarian, in the experiment on SF-295 CNS, in the experiment with SK-MEL-2 melanoma and in the experiment with SK-MEL-5 melanoma was more than 100 µM throughout.

Take `C#CCOCn1cnc2c(=S)nc[nH]c21`: the TGI with 786-0 renal, in the experiment with CAKI-1 renal, with EKVX NSCLC, with HCC-2998 colon, in the experiment with K-562 leukemia and in the experiment with NCI-H460 lung was more than 100 µM each time. For the same compound, the TGI with OVCAR-4 ovarian, in the experiment on SF-295 CNS, in the experiment with SK-MEL-2 melanoma and with SK-MEL-5 melanoma was more than 100 µM in each case.

With `CNNCc1ccc(C(=O)NC(C)C)cc1`, the GI50 with 786-0 renal, with CAKI-1 renal, in the experiment with HCC-2998 colon, in the experiment with K-562 leukemia and in the experiment with SK-MEL-5 melanoma was more than 500 µM in each case. Further, the TGI with 786-0 renal, with CAKI-1 renal, in the experiment on EKVX NSCLC, in the experiment on HCC-2998 colon, in the experiment on K-562 leukemia and in the experiment on NCI-H460 lung was more than 500 µM each time. The TGI in the experiment on OVCAR-4 ovarian, with SF-295 CNS, with SK-MEL-2 melanoma and in the experiment with SK-MEL-5 melanoma was more than 500 µM in each case.

With `ClCc1ccc(-c2ccc(Cn3cnc4c(Cl)nc(Cl)nc43)cc2)cc1`, the GI50 with 786-0 renal is 6.43 µM; with CAKI-1 renal, 1.84 µM; in the experiment with EKVX NSCLC, 3.32 µM; in the experiment with HCC-2998 colon it was 1.41 µM; with K-562 leukemia it was 10.4 µM; with NCI-H460 lung, 3 µM. Also, the GI50 with OVCAR-4 ovarian is 3.39 µM; with SF-295 CNS it was 2.69 µM; in the experiment on SK-MEL-2 melanoma, 1.88 µM; with SK-MEL-5 melanoma it was 2.75 µM. Also, the TGI in the experiment with 786-0 renal is 19.6 µM; in the experiment on CAKI-1 renal, 4.32 µM; with EKVX NSCLC it was 15.5 µM; with HCC-2998 colon, 2.9 µM; in the experiment on K-562 leukemia it was more than 100 µM; in the experiment with NCI-H460 lung it was 10.6 µM. Besides, the TGI turned out to be 13.3 µM with OVCAR-4 ovarian, 6.5 µM with SF-295 CNS, 3.42 µM with SK-MEL-2 melanoma and 12.3 µM with SK-MEL-5 melanoma.

Regarding `Cc1c2c(nn1C(=O)c1nn(-c3ccc(Cl)cc3)cc1O)-c1ccccc1CC2`, the GI50 is 0.319 µM in the experiment with 786-0 renal; 0.0971 µM in the experiment with CAKI-1 renal; 0.0707 µM in the experiment with EKVX NSCLC; 0.377 µM with HCC-2998 colon; 0.0273 µM with K-562 leukemia; 0.0237 µM in the experiment on NCI-H460 lung. Moreover, the GI50 is 0.246 µM in the experiment with OVCAR-4 ovarian, 0.0119 µM in the experiment with SF-295 CNS, 55.4 µM with SK-MEL-2 melanoma and 0.313 µM in the experiment on SK-MEL-5 melanoma. The TGI with 786-0 renal was more than 64.1 µM; in the experiment with CAKI-1 renal, 6.85 µM; with EKVX NSCLC, more than 100 µM; in the experiment with HCC-2998 colon, more than 100 µM; in the experiment with K-562 leukemia, more than 100 µM; with NCI-H460 lung, 0.0613 µM. For the same compound, the results for the TGI with OVCAR-4 ovarian, in the experiment with SF-295 CNS and in the experiment with SK-MEL-2 melanoma were more than 100 µM, 0.0548 µM and more than 100 µM, respectively.

As to `Nc1ncnc(NC2C=C(CO)C(O)C2O)c1[N+](=O)[O-]` (centres undefined), the TGI in the experiment with 786-0 renal, in the experiment on CAKI-1 renal, in the experiment with EKVX NSCLC, in the experiment on HCC-2998 colon, in the experiment on K-562 leukemia and with NCI-H460 lung was more than 100 µM throughout. For the same compound, the TGI in the experiment on OVCAR-4 ovarian, in the experiment with SF-295 CNS, with SK-MEL-2 melanoma and in the experiment with SK-MEL-5 melanoma was more than 100 µM in each case.

`N=C1N(c2ccccc2)C(=O)C23CCCC2C13N1CCOCC1` (centres undefined): the TGI in the experiment with 786-0 renal, with CAKI-1 renal, with EKVX NSCLC, in the experiment with HCC-2998 colon, in the experiment on K-562 leukemia and in the experiment on NCI-H460 lung was more than 100 µM throughout. Besides, the TGI in the experiment on OVCAR-4 ovarian, with SF-295 CNS, in the experiment with SK-MEL-2 melanoma and in the experiment on SK-MEL-5 melanoma was more than 100 µM throughout.

Consider `COC(=O)C(C(=O)C(=O)Nc1ccccc1C(C)=O)c1nc2ccc(Cl)cc2[nH]c1=O` (centres undefined), for which the TGI in the experiment on 786-0 renal, with CAKI-1 renal, with EKVX NSCLC, in the experiment with HCC-2998 colon, in the experiment on K-562 leukemia and in the experiment with NCI-H460 lung was more than 100 µM throughout. Moreover, the TGI with OVCAR-4 ovarian, in the experiment on SF-295 CNS, in the experiment on SK-MEL-2 melanoma and in the experiment with SK-MEL-5 melanoma was more than 100 µM each time.

Turning to `O=C(O)c1ccc(O)c(N=Nc2cc(S(=O)(=O)O)c3ccccc3c2O)c1`, the TGI with 786-0 renal, with CAKI-1 renal, in the experiment with EKVX NSCLC, with HCC-2998 colon, in the experiment with K-562 leukemia and in the experiment on NCI-H460 lung was more than 100 µM each time. Besides, the TGI in the experiment on OVCAR-4 ovarian was more than 100 µM; in the experiment with SF-295 CNS it was more than 10 µM; in the experiment with SK-MEL-2 melanoma it was more than 10 µM; in the experiment with SK-MEL-5 melanoma, more than 100 µM.
